Test results published in patent EP4285895A1, “NITROFURANTOIN ORAL DOSAGE FORM” (Adalvo Limited, priority 2022, dated 2023).
Converted amounts (≈) assume the structure as drawn.

Assay: physchem

solubility (0.01N HCl, simulated gastric fluid): 0.14 mg/mL (≈ 588 µM)
solubility (0.1N HCl, simulated gastric fluid): 0.14 mg/mL (≈ 588 µM)
solubility (acetate buffer, pH 4.5, aqueous buffer): 0.05 mg/mL (≈ 210 µM)
solubility (phosphate buffer, pH 6.8, aqueous buffer): 0.2 mg/mL (≈ 840 µM)
solubility (phosphate buffer, pH 7.5, aqueous buffer): 0.62 mg/mL (≈ 2600 µM)
solubility (water): 0.16 mg/mL (≈ 672 µM)
SMILES: O=C1CN(N=Cc2ccc([N+](=O)[O-])o2)C(=O)N1 [Macrocrystals, 1-[[[5-nitro-2-furanyl]methylene]amino]-2,4-imidazolidinedione]
